Key:
Acetylcholinesterase [1] = biological target: Acetylcholinesterase (Electrophorus electricus, UniProt O42275); assay: Inhibition of electric eel AChE using acetylcholine iodide as substrate measured every 5 sec for 2 mins by Ellman's method
Acetylcholinesterase [2] = biological target: T1, Acetylcholinesterase (Homo sapiens, UniProt P22303); assay: Inhibition of human AChE by Ellman's method
[3] = biological target: Acetylcholinesterase (Electrophorus electricus) (UniProt O42275); assay: Inhibition of electric eel AChE using acetylcholine iodide as substrate at 6.2 X 10^-4 M measured every 5 sec for 2 mins by Ellman's method
Sequence of Acetylcholinesterase (Electrophorus electricus) (O42275 24-633 limits assumed): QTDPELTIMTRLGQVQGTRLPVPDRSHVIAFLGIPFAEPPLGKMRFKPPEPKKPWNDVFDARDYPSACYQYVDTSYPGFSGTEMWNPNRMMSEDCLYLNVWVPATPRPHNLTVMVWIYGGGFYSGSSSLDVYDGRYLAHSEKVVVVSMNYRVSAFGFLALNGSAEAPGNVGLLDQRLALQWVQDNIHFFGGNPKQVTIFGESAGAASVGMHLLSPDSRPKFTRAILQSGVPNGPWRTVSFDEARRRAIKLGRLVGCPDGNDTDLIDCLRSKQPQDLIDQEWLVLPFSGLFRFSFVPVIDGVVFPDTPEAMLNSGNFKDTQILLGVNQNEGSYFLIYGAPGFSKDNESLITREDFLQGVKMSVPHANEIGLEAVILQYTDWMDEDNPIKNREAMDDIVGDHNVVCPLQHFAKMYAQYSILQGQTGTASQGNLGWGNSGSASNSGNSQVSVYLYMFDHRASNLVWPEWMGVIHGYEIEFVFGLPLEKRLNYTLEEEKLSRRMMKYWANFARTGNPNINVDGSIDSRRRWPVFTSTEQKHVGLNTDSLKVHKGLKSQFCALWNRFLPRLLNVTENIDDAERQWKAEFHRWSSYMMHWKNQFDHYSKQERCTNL

Acetylcholinesterase [4] = biological target: T1, Acetylcholinesterase; assay: Inhibition of AChE by Ellman's method

Sequence of Acetylcholinesterase (Electrophorus electricus, UniProt O42275) (O42275 whole entry): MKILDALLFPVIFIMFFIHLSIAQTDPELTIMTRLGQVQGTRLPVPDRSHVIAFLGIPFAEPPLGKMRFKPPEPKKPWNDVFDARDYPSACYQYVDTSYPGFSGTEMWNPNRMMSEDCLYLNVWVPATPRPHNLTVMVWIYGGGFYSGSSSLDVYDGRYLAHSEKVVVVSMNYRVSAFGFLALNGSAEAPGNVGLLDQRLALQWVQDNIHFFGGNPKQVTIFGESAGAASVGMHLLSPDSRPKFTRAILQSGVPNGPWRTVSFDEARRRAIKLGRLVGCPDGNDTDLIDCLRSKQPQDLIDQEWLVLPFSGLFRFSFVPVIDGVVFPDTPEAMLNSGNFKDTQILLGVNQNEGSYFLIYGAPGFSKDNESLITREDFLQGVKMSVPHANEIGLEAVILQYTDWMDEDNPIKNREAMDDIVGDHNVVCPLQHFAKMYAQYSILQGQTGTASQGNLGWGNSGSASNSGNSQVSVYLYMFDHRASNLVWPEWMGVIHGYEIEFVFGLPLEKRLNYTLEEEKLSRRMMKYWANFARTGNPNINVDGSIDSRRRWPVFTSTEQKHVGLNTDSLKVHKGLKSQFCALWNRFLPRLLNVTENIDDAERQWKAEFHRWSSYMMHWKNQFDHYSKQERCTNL
T1 sequence (P22303 whole entry): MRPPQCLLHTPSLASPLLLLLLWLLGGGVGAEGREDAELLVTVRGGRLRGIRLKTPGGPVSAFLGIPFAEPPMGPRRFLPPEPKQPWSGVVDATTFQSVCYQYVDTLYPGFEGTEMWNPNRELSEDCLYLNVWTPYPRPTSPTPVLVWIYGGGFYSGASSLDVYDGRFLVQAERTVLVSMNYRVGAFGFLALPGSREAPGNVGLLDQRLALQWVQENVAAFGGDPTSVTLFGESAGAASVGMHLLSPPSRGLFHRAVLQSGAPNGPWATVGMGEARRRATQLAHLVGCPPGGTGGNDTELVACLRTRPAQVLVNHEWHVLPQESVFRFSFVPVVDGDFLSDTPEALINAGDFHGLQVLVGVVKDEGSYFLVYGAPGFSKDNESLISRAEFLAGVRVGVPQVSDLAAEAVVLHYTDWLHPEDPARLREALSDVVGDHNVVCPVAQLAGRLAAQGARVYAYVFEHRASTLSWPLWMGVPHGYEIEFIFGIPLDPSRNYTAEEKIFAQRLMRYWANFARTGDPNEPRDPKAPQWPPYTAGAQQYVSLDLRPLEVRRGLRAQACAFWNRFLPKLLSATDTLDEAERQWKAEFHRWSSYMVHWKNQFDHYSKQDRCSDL

Compound | IC50 (Acetylcholinesterase [1]) [µM] | further results
CC1=NCCc2c1[nH]c1cc(O)ccc21 [HARMALOL] | 11.3 | –
COc1ccc2c3c([nH]c2c1)C(C)=NCC3 [HARMALINE] | 4.9 | IC50 (Acetylcholinesterase [2]): 23.7 µM
c1ccc2c3c([nH]c2c1)CNCC3 [TRYPTOLINE] | 97.1 | –
COc1ccc2[nH]c3c(c2c1)CCNC3 | 227 | –
O=C(O)c1cccc2[nH]ccc12 | – | inhibition [3]: 36.8%
COc1ccc2c(c1)[nH]c1c(C)nccc12 [HARMINE] | 22.9 | –
O=C(O)c1ccc2cc[nH]c2c1 | – | inhibition [3]: 28.5%
COc1ccc2c(ccc[n+]2Cc2ccccc2)c1 | 2.46 | IC50 (Acetylcholinesterase [2]): 5.29 µM
O=C(O)c1ccc2[nH]ccc2c1 | – | inhibition [3]: 29.1%
CC[C@H]1C[C@@H]2CN3CCc4c([nH]c5cc([C@H]6C[C@H]7C(C(=O)OC)[C@H](Cc8c6[nH]c6ccccc86)N(C)C[C@H]7CC)ccc45)[C@](C(=O)OC)(C2)[C@H]13 (stereo partly drawn) | – | IC50 (Acetylcholinesterase [4]): 0.071 µM
COc1ccc2c(ccc[n+]2C)c1 | 7.67 | IC50 (Acetylcholinesterase [2]): 49.7 µM
Cc1nccc2c1[nH]c1cc(O)ccc12 | 8.02 | –
CC[C@H]1C[C@@H]2C[C@H]3c4[nH]c5cc([C@@H]6C[C@H]7C(C(=O)OC)[C@@H](Cc8c6[nH]c6ccccc86)N(C)C[C@H]7CC)ccc5c4CCN(C2)[C@@H]13 (stereo partly drawn) | – | IC50 (Acetylcholinesterase [4]): 0.227 µM
O=C(O)c1cccc2cc[nH]c12 | – | inhibition [3]: 23.4%
Cc1nccc2c1[nH]c1ccccc12 [HARMAN] | 20.9 | –
